The source of these data is ChEMBL document CHEMBL1142910, “Enzymatic and cellular study of a serotonin N-acetyltransferase phosphopantetheine-based prodrug” (2007).

In test [1] the target is Serotonin N-acetyltransferase (Rattus norvegicus) (UniProt Q64666). Kind of test: Activity of AANAT assessed as conversion of bis-pivaloyloxymethylene-tryptamine-phosphopantetheine to tryptamine phosphopantetheine in rat pinealocytes after 60 mins. Type of test: cell-based.
Test [2] can be described thus: Inhibition of norepinephrine-stimulated melatonin production assessed per 10^5 cells in rat pinealocytes at 10 uM by radioimmunoassay. It is filed as functional.
The target in test [3] is Serotonin N-acetyltransferase (Rattus norvegicus) (UniProt Q64666). In words: Inhibition of norepinephrine-stimulated AANAT activity assessed per 10^5 cells in rat pinealocytes at 10 uM. Type of test: cell-based.
Test [4] can be described thus: Inhibition of norepinephrine-stimulated melatonin production assessed per 10^5 cells in rat pinealocytes at 50 uM by radioimmunoassay. It is filed as functional.
The target of test [5] is Serotonin N-acetyltransferase (Rattus norvegicus) (UniProt Q64666). In words: Inhibition of norepinephrine-stimulated AANAT activity assessed per 10^5 cells in rat pinealocytes at 50 uM. It is filed as cell-based.
Test [6] has the same target. In words: Activity of AANAT assessed as conversion of bis-pivaloyloxymethylene-tryptamine-phosphopantetheine to tryptamine phosphopantetheine in rat pinealocytes at […]. It is filed as cell-based. As to conditions: TDE = time-dependent effect.

Molecules are shown by their SMILES.

Sequence of Serotonin N-acetyltransferase (Rattus norvegicus) (Q64666 whole entry): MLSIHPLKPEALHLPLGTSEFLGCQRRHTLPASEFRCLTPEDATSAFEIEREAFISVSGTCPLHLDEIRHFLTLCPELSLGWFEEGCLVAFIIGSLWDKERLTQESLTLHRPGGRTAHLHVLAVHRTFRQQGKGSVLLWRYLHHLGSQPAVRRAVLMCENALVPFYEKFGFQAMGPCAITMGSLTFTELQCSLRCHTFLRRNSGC

Turning to `CC(C)(C)C(=O)OCOP(=O)(OCOC(=O)C(C)(C)C)OCC(C)(C)[C@@H](O)C(=O)NCCC(=O)NCCSCC(=O)NCCc1c[nH]c2ccccc12`, the Activity in test [1] is 40%; in test [3], 2.2 nmol/h; in test [5], 1.6 nmol/h; in test [6] it was “tde”. For the same compound, the figures for the Inhibition in test [2] and in test [4] were 9 pmol and 5.7 pmol, respectively.
